Where two headings read alike, the source gives them in different places.
Experiments:
[1] = target: T1, human cathepsin L (Homo sapiens, UniProt P07711); assay: cathepsin L assay; assay type: biochemical; conditions: 10 pM human cathepsin L, Z-FR-AMC 2 μM, class symbols
T1 construct: purchased R&D Systems
Method: For the cathepsin L assay, 10 pM of human cathepsin L (R&D Systems; Minneapolis, MN) was preincubated for 30 mins with test compounds. Reactions were initiated by the addition of a peptide substrate Z-FR-AMC (final concentration 2 μM, Anaspec; Fremont, CA). Fluorescence was measured at 2-minute intervals for 30 mins using a 355/460 excitation/emission filter module on an Envision plate reader (Perkin Elmer; Waltham, MA). The IC50 values were calculated for each assay by fitting the curves using a four-parameter equation in GraphPad Prism.

[2] = target: HRV3C (Human rhinovirus 14, UniProt P03303); assay: HRV3C protease assay (duplex, SAMDI-MS); assay type: biochemical, HRV; conditions: 30 mins preincubation
Method: Protease assays were performed in 384-well low volume polypropylene microtiter plates at ambient temperature. For the duplex assay, 3CLpro and HRV3C was added using a Multidrop Combi (Thermo Scientific; Waltham, MA) and preincubated for 30 mins with small molecules. The reactions were initiated by the addition of the two peptide substrates. The reactions were incubated for 30 mins and quenched by the addition of 0.5% formic acid (final) with subsequent neutralization using 1% sodium bicarbonate (final). Internal standard peptides were added in 20 mM Hepes pH 8.0 for quantitation of the protease products. For SAMDI-MS analysis, 2 μL of each reaction mixture was transferred using a 384-channel automated liquid handler to SAMDI biochip arrays functionalized with a neutravidin-presenting self-assembled monolayer. The SAMDI arrays were incubated for 1 h in a humidified chamber to allow the specific immobilization of the biotinylated peptide substrates, cleaved products and internal standards. The samples were purified by washing the SAMDI arrays with deionized ultrafiltered water and dried with compressed air. A matrix comprising alpha-cyano cinnamic acid in 80% acetonitrile:20% aqueous ammonium citrate was applied in an automated format by dispensing 50 nL to each spot in the array. SAMDI-MS was performed using reflector-positive mode on an AB Sciex TOF-TOF 5800 System (AB Sciex, Framingham, MA) with 400 shots/spot analyzed in a random raster sampling. For data analysis, area under the curves (peaks) (AUCs) for the product and internal standard were calculated using the TOF/TOF Series Explorer (AB Sciex), and the amount of product formed was calculated using the equation (AUC product/AUC internal standard). The amount of product generated was calculated using the ratio of product area under the curve (AUC) divided by the AUC of the internal standard. Negative controls were pre-quenched with 0.5% formic acid final. Assay robustness was determined by Z-Factor. The IC50s were determined by fitting the curves using a four-parameter equation in Graphpad Prism 8.

[3] = target: 3CLpro (Severe acute respiratory syndrome coronavirus 2, UniProt P0DTD1); assay: SARS-CoV-2 3CLpro protease assay (duplex, SAMDI-MS); assay type: biochemical; parameters: For the duplex assay, 3CLpro and HRV3C was added; conditions: 3CLpro, 30 mins preincubation, class symbols; read-out: SARS-Cov-2 IC50
[4] = Cytotoxicity plates without OC43 virus (cell-titer-glo); assay type: cell-based, human; conditions: human; HeLa cells without OC43 virus, class symbols
Method: The human beta-coronavirus OC43 was purchased from ATCC (Manassas, VA) and propagated using HCT-8 human colorectal epithelial cells (ATCC). HeLa human cervical epithelial cells (ATCC) were used as susceptible host cell lines and were cultured using EMEM media, supplemented with 10% fetal bovine serum (FBS), 1% (v/v) penicillin/streptomycin (P/S), 1% (v/v) HEPES and 1% (v/v) Cellgro Glutagro™ supplement (all Corning, Manassas, VA) at 37° C. For the OC43 antiviral assay, 1.5×10^4 HeLa cells per well were plated in 100 μL complete media in white 96-well plates with clear bottoms at 37° C. for up to 24 h to facilitate attachment and allow cells to recover from seeding stresses. Next day, the cell culture medium was removed. Serially diluted compounds in 100 μL assay media (EMEM, 2% FBS, 1% P/S, 1% Cellgro Glutagro™ supplement, 1% HEPES) were added to the cells and incubated for 4H at 37° C. in a humidified 5% CO2 incubator. 100 μL of OC43 virus stock was diluted to a concentration known to produce optimal cytopathic effect, inducing 80-90% reduction in cell viability. 96-well plates were incubated for 6 (HeLa) days at 33° C.; each plate contains uninfected control wells as well as virus-infected wells that were not treated with compound. Cytotoxicity plates without the addition of OC43 virus were carried out in parallel. At the end of the incubation period, 100 μL cell culture supernatant was replaced with 100 μL cell-titer-glo reagent (Promega, Madison, WI) and incubated for at least 10 min at rt prior to measuring luminescence. Luminescence was measured on a Perkin Elmer (Waltham, MA) Envision plate reader. Antiviral % inhibition was calculated as follows: [(Compound treated cells infected sample)−(no compound infected control)]/[(Uninfected control)−(no compound infected control)]*100; Using GraphPad (San Diego, CA) prism software version 8.3.1, the antiviral dose-response plot was generated as a sigmoidal fit, log(inhibitor) vs response-variable slope (four parameters) model and the EC50 was calculated which is the predicted compound concentration corresponding to a 50% inhibition of the viral cytopathic effect.

[5] = tested on: human beta-coronavirus OC43; assay: microbe, parasite or virus in culture; assay type: cell-based; conditions: Betacoronavirus 1, OC43, HeLa, 144 h, OC43 in HeLa cells, 6 days at 33° C., read-out: EC50
[6] = tested on: SARS-CoV-2-GHB-03021/2020; assay: microbe, parasite or virus in culture; assay type: cell-based; conditions: Severe acute respiratory syndrome coronavirus 2, Vero C1008, 96 h; read-out: VeroE6 + CP (EC50)
[7] = in vitro; conditions: African green monkey, VeroE6 + CP (CC50), Vero E6-eGFP cells with CP-100356, absence of virus, MTS; numeric bounds
[8] = HRV3C, bound, read-out: HRV IC50
[9] = HRV3C, class symbols, read-out: HRV IC50

SMILES	IC50 [1] [µM]	IC50 [2, 8] [µM]	IC50 [3] [µM]	CC50 at 6 days [4] [µM]	EC50 ([5]; bound) [µM]	EC50 ([5]; class symbols) [µM]	IC50 ([2]; HRV IC50, HRV3C, class symbols) [µM]	EC50 [6] [µM]	CC50 [7] [µM]	IC50 [2, 9] [µM]
CCOC(=O)c1cc(C(=O)N2C[C@@H]3CCC[C@@H]3[C@H]2C(=O)N[C@H](C#N)C[C@@H]2CCNC2=O)[nH]c1C [Compound 193]	≥ 10	> 10	0.2 to 2	–	–	–	–	–	–	–
C#C[C@H](C[C@@H]1CCNC1=O)NC(=O)[C@@H]1[C@H]2CCC[C@H]2CN1C(=O)c1cc2c(Cl)ccc(Cl)c2[nH]1 [Compound 177, (1S,3aR,6aS)-2-(4,7-dichloro-1H-indole-2-carbonyl)-N-[(2S)-1-[(3S)-2-oxopyrrolidin-3-yl]but-3-yn-2-yl]-hexahydro-1H-cyclopenta[c]pyrrole-1-carboxamide]	≥ 10	> 10	2 to 20	> 10	> 10	–	–	–	–	–
C=CC[C@@H]1C[C@@H](C(=O)N[C@@H](C[C@@H]2CCNC2=O)C(=O)C(=O)NCc2ccccc2)N(C(=O)c2cc3ccccc3[nH]2)C1 [Compound 21]	–	–	0.2 to 2	> 10	–	0.1 to 1	2 to 20	10 to 100	–	–
O=C(NCc1ccccc1)C(=O)C(C[C@@H]1CCNC1=O)NC(=O)[C@@H]1C[C@@H](OCc2ccccc2)CN1C(=O)c1cc2ccccc2[nH]1 (stereo partly shown) [Compound 6]	–	–	2 to 20	> 10	–	1 to 10	0.2 to 2	> 100	> 100	–
COc1nccc2[nH]c(C(=O)N3C[C@@H]4CCC[C@@H]4[C@H]3C(=O)N[C@H](C#N)C[C@@H]3CCNC3=O)cc12 [Compound 191]	≥ 10	> 10	0.2 to 2	–	–	–	–	–	–	–
COc1cc(Cl)cc2[nH]c(C(=O)N3C[C@@H]4CCC[C@@H]4[C@H]3C(=O)N[C@H](C#N)C[C@@H]3CCNC3=O)cc12 [Compound 192]	≥ 10	> 10	0.2 to 2	–	–	–	–	–	–	–
COc1cccc2[nH]c(C(=O)N3C[C@H]4CCCC[C@H]4[C@@H]3C(=O)N[C@@H](C[C@@H]3CCCNC3=O)C(=O)COCc3ccccc3)cc12 (single isomer, unassigned) [Compound 59A_2]	≥ 10	> 10	0.2 to 2	> 10	–	1 to 10	–	–	–	–
N#C[C@H](C[C@@H]1CCNC1=O)NC(=O)[C@@H]1[C@H]2CCC[C@H]2CN1C(=O)c1nc2c(Cl)ccc(Cl)c2[nH]1 [Compound 186]	≥ 10	> 10	0.2 to 2	–	–	–	–	–	–	–
COc1cccc2[nH]c(C(=O)N3CC4(C5CC5)CC3(C(=O)N[C@@H](C[C@@H]3CCNC3=O)C(=O)C(=O)NC3CC3)C4)cc12 [Compound 131]	≥ 10	–	0.02 to 0.2	> 10	> 10	–	–	–	–	0.02 to 0.2
COc1cccc2[nH]c(C(=O)N3C[C@@H]4CCCC[C@@H]4[C@H]3C(=O)N[C@@H](C[C@@H]3CCCNC3=O)C(=O)CO)cc12 [Compound 59_1, (1S,3aR,7aS)—N—((S)-4-hydroxy-3-oxo-1-((S)-2-oxopiperidin-3-yl)butan-2-yl)-2-(4-methoxy-1H-indole-2-carbonyl)octahydro-1H-isoindole-1-carboxamide]	≥ 10	–	< 0.02	> 10	–	0.1 to 1	–	–	–	2 to 20
COc1ccc(Cl)c2cc(C(=O)N3C[C@@H]4CCC[C@@H]4[C@H]3C(=O)N[C@@H](C[C@@H]3CCNC3=O)C(=O)CO)[nH]c12 [Compound 176]	≥ 10	> 10	0.02 to 0.2	> 10	–	0.1 to 1	–	–	–	–
N#C[C@H](C[C@@H]1CCNC1=O)NC(=O)[C@@H]1[C@H]2CCC[C@H]2CN1C(=O)c1cc2c(OC(F)F)cccc2[nH]1 [Compound 190]	≥ 10	> 10	0.2 to 2	–	–	–	–	–	–	–
COc1ccc(F)c2[nH]c(C(=O)N3C[C@@H]4CCC[C@@H]4[C@H]3C(=O)N[C@H](C#N)C[C@@H]3CCNC3=O)cc12 [Compound 189]	≥ 10	> 10	0.2 to 2	–	–	–	–	–	–	–
N#C[C@H](C[C@@H]1CCNC1=O)NC(=O)[C@@H]1[C@H]2CCC[C@H]2CN1C(=O)c1cc2c(OC3CC3)cc(Cl)cc2[nH]1 [Compound 185, (1S,3aR,6aS)-2-(6-chloro-4-cyclopropoxy-1H-indole-2-carbonyl)-N-[(1S)-1-cyano-2-[(3S)-2-oxopyrrolidin-3-yl]ethyl]-hexahydro-1H-cyclopenta[c]pyrrole-1-carboxamide]	≥ 10	> 10	0.2 to 2	–	–	–	–	–	–	–
N#C[C@H](C[C@@H]1CCNC1=O)NC(=O)[C@@H]1[C@H]2CCC[C@H]2CN1C(=O)c1cc2c(Cl)cc(F)cc2[nH]1 [Compound 187]	≥ 10	> 10	0.2 to 2	–	–	–	–	–	–	–
COc1cc(F)c(F)c2[nH]c(C(=O)N3C[C@@H]4CCC[C@@H]4[C@H]3C(=O)N[C@@H](C[C@@H]3CCNC3=O)C(=O)CO)cc12 [Compound 184, (1S,3aR,6aS)-2-(6,7-difluoro-4-methoxy-1H-indole-2-carbonyl)-N-[(2S)-4-hydroxy-3-oxo-1-[(3S)-2-oxopyrrolidin-3-yl]butan-2-yl]-hexahydro-1H-cyclopenta[c]pyrrole-1-carboxamide]	≥ 10	–	< 0.02	–	–	–	–	–	–	2 to 20
N#C[C@H](C[C@@H]1CCNC1=O)NC(=O)[C@@H]1[C@H]2CCC[C@H]2CN1C(=O)c1cc2c(Cl)ccc(C(F)(F)F)c2[nH]1 [Compound 175]	≥ 10	> 10	0.2 to 2	> 10	–	1 to 10	–	–	–	–
COc1cccc2[nH]c(C(=O)N3C[C@H]4CCCC[C@H]4[C@@H]3C(=O)N[C@@H](C[C@@H]3CCCNC3=O)C(=O)CO)cc12 [Compound 59_2, (1R,3aS,7aR)—N—((S)-4-hydroxy-3-oxo-1-((S)-2-oxopiperidin-3-yl)butan-2-yl)-2-(4-methoxy-1H-indole-2-carbonyl)octahydro-1H-isoindole-1-carboxamide]	≥ 10	> 10	0.2 to 2	> 10	–	1 to 10	–	–	–	–
N#C[C@H](C[C@@H]1CCNC1=O)NC(=O)[C@@H]1[C@H]2CCC[C@H]2CN1C(=O)c1cc2c(Cl)cc(Cl)cc2[nH]1 [Compound 188]	≥ 10	> 10	0.2 to 2	–	–	–	–	–	–	–
